ChEMBL document CHEMBL3112408, “1,2,3-triazole-, arylamino- and thio-substituted 1,4-naphthoquinones: potent antitumor activity, electrochemical aspects, and bioisosteric replacement of C-ring-modified lapachones” (Bioorg Med Chem, 2014)

System: not listed separately
Assay: Cytotoxicity against human Hs578T cells assessed as cell viability after 72 hrs by MTT assay
Type: functional, cell-based
Details: Hs-578T
In the case of `O=C1C(Br)=C(NCc2cn(-c3cccc([N+](=O)[O-])c3)nn2)C(=O)c2ccccc21`, the IC50 is reported as over 11 µM.
`CC1(C)CC(Nc2cccc(F)c2)C2=C(O1)C(=O)c1ccccc1C2=O` (stereo unspecified) showed an IC50 of 7.68 µM.
`CC1(C)CC(Nc2cccc(Br)c2)C2=C(O1)C(=O)c1ccccc1C2=O` (stereo unspecified) showed an IC50 of 11.5 µM.
With `CC1(C)CC(Sc2ccccc2)C2=C(O1)C(=O)c1ccccc1C2=O` (stereo unspecified) the IC50 was 4.61 µM.
Compound `CC1(C)OC2=C(C(=O)c3ccccc3C2=O)C1Sc1ccccc1` (stereo unspecified) has an IC50 of 3.26 µM.
Compound `O=C1C(Cl)=C(NCc2cn(CCCCN3C(=O)c4ccccc4C3=O)nn2)C(=O)c2ccccc21` has an IC50 of over 10 µM.

System: MX1
Assay: Cytotoxicity against human MX1 cells assessed as cell viability after 72 hrs by MTT assay
Type: functional, cell-based
Details: MX1, 72 h
For `O=C1C(Br)=C(NCc2cn(-c3cccc([N+](=O)[O-])c3)nn2)C(=O)c2ccccc21`, the IC50 was over 11 µM.
`CC1(C)CC(Nc2cccc(F)c2)C2=C(O1)C(=O)c1ccccc1C2=O` (stereo unspecified) gave an IC50 of 7.11 µM.
Work on `CC1(C)CC(Nc2cccc(Br)c2)C2=C(O1)C(=O)c1ccccc1C2=O` (stereo unspecified) yielded an IC50 of 8.66 µM.
`CC1(C)CC(Sc2ccccc2)C2=C(O1)C(=O)c1ccccc1C2=O` (stereo unspecified) gave an IC50 of 11.8 µM.
In the case of `CC1(C)OC2=C(C(=O)c3ccccc3C2=O)C1Sc1ccccc1` (stereo unspecified), the IC50 is reported as 6.45 µM.
For `O=C1C(Cl)=C(NCc2cn(CCCCN3C(=O)c4ccccc4C3=O)nn2)C(=O)c2ccccc21`, the IC50 was over 10 µM.

System: MDA-MB-435
Assay: Cytotoxicity against human MDA-MB-435 cells assessed as cell viability after 72 hrs by MTT assay
Type: functional, cell-based
Details: MDA-MB-435, 72 h
Compound `O=C1C(Br)=C(NCc2cn(-c3cccc([N+](=O)[O-])c3)nn2)C(=O)c2ccccc21` has an IC50 of over 11 µM.
`CC1(C)CC(Nc2cccc(Br)c2)C2=C(O1)C(=O)c1ccccc1C2=O` (stereo unspecified) gave an IC50 of 9.6 µM.
For `O=C1C(Cl)=C(NCc2cn(CCCCN3C(=O)c4ccccc4C3=O)nn2)C(=O)c2ccccc21`, the IC50 was over 10 µM.

System: HL-60
Assay: Cytotoxicity against human HL60 cells assessed as cell viability after 72 hrs by MTT assay
Type: functional, cell-based
Details: HL-60, 72 h
In the case of `O=C1C(Br)=C(NCc2cn(-c3cccc([N+](=O)[O-])c3)nn2)C(=O)c2ccccc21`, the IC50 is reported as over 11 µM.
Work on `CC1(C)CC(Nc2cccc(Br)c2)C2=C(O1)C(=O)c1ccccc1C2=O` (stereo unspecified) yielded an IC50 of 7.66 µM.
Compound `CC1(C)CC(Sc2ccccc2)C2=C(O1)C(=O)c1ccccc1C2=O` (stereo unspecified) has an IC50 of 2.91 µM.
With `CC1(C)OC2=C(C(=O)c3ccccc3C2=O)C1Sc1ccccc1` (stereo unspecified) the IC50 was 0.47 µM.
In the case of `O=C1C(Cl)=C(NCc2cn(CCCCN3C(=O)c4ccccc4C3=O)nn2)C(=O)c2ccccc21`, the IC50 is reported as over 10 µM.

System: V79
Assay: Cytotoxicity against chinese hamster V79 cells assessed as cell viability after 72 hrs by MTT assay
Type: cell-based
Details: Cricetulus griseus, V79, 72 h
Compound `O=C1C(Br)=C(NCc2cn(-c3cccc([N+](=O)[O-])c3)nn2)C(=O)c2ccccc21` has an IC50 of over 11 µM.
`CC1(C)CC(Nc2cccc(F)c2)C2=C(O1)C(=O)c1ccccc1C2=O` (stereo unspecified) showed an IC50 of 2.68 µM.
`CC1(C)CC(Nc2cccc(Br)c2)C2=C(O1)C(=O)c1ccccc1C2=O` (stereo unspecified) gave an IC50 of 3.2 µM.
Work on `CC1(C)CC(Sc2ccccc2)C2=C(O1)C(=O)c1ccccc1C2=O` (stereo unspecified) yielded an IC50 of over 14 µM.
`CC1(C)OC2=C(C(=O)c3ccccc3C2=O)C1Sc1ccccc1` (stereo unspecified) showed an IC50 of over 14.8 µM.
`O=C1C(Cl)=C(NCc2cn(CCCCN3C(=O)c4ccccc4C3=O)nn2)C(=O)c2ccccc21` showed an IC50 of over 10 µM.

System: PC-3
Assay: Cytotoxicity against human PC3 cells assessed as cell viability after 72 hrs by MTT assay
Type: functional, cell-based
Details: PC-3, 72 h
Work on `O=C1C(Br)=C(NCc2cn(-c3cccc([N+](=O)[O-])c3)nn2)C(=O)c2ccccc21` yielded an IC50 of over 11 µM.
In the case of `CC1(C)CC(Nc2cccc(F)c2)C2=C(O1)C(=O)c1ccccc1C2=O` (stereo unspecified), the IC50 is reported as 7.77 µM.
`CC1(C)CC(Nc2cccc(Br)c2)C2=C(O1)C(=O)c1ccccc1C2=O` (stereo unspecified) showed an IC50 of 9.87 µM.
Compound `CC1(C)CC(Sc2ccccc2)C2=C(O1)C(=O)c1ccccc1C2=O` (stereo unspecified) has an IC50 of over 14 µM.
`CC1(C)OC2=C(C(=O)c3ccccc3C2=O)C1Sc1ccccc1` (stereo unspecified) showed an IC50 of 6.09 µM.
In the case of `O=C1C(Cl)=C(NCc2cn(CCCCN3C(=O)c4ccccc4C3=O)nn2)C(=O)c2ccccc21`, the IC50 is reported as over 10 µM.

System: MCF7
Assay: Cytotoxicity against human MCF7 cells assessed as cell viability after 72 hrs by MTT assay
Type: functional, cell-based
Details: MCF7, 72 h
Work on `O=C1C(Br)=C(NCc2cn(-c3cccc([N+](=O)[O-])c3)nn2)C(=O)c2ccccc21` yielded an IC50 of over 11 µM.
Compound `CC1(C)CC(Nc2cccc(F)c2)C2=C(O1)C(=O)c1ccccc1C2=O` (stereo unspecified) has an IC50 of 6.92 µM.
With `CC1(C)CC(Nc2cccc(Br)c2)C2=C(O1)C(=O)c1ccccc1C2=O` (stereo unspecified) the IC50 was 9.99 µM.
Work on `CC1(C)CC(Sc2ccccc2)C2=C(O1)C(=O)c1ccccc1C2=O` (stereo unspecified) yielded an IC50 of 13.3 µM.
Compound `CC1(C)OC2=C(C(=O)c3ccccc3C2=O)C1Sc1ccccc1` (stereo unspecified) has an IC50 of 7.43 µM.
`O=C1C(Cl)=C(NCc2cn(CCCCN3C(=O)c4ccccc4C3=O)nn2)C(=O)c2ccccc21` gave an IC50 of over 10 µM.

System: SF-295
Assay: Cytotoxicity against human SF295 cells assessed as cell viability after 72 hrs by MTT assay
Type: functional, cell-based
Details: SF-295, 72 h
With `O=C1C(Br)=C(NCc2cn(-c3cccc([N+](=O)[O-])c3)nn2)C(=O)c2ccccc21` the IC50 was over 11 µM.
`CC1(C)CC(Nc2cccc(Br)c2)C2=C(O1)C(=O)c1ccccc1C2=O` (stereo unspecified) showed an IC50 of 8.76 µM.
Compound `CC1(C)CC(Sc2ccccc2)C2=C(O1)C(=O)c1ccccc1C2=O` (stereo unspecified) has an IC50 of over 14 µM.
Compound `CC1(C)OC2=C(C(=O)c3ccccc3C2=O)C1Sc1ccccc1` (stereo unspecified) has an IC50 of 9.15 µM.
For `O=C1C(Cl)=C(NCc2cn(CCCCN3C(=O)c4ccccc4C3=O)nn2)C(=O)c2ccccc21`, the IC50 was over 10 µM.

System: OVCAR-8
Assay: Cytotoxicity against human OVCAR8 cells assessed as cell viability after 72 hrs by MTT assay
Type: functional, cell-based
Details: OVCAR-8, 72 h
For `O=C1C(Br)=C(NCc2cn(-c3cccc([N+](=O)[O-])c3)nn2)C(=O)c2ccccc21`, the IC50 was over 11 µM.
Work on `CC1(C)CC(Nc2cccc(Br)c2)C2=C(O1)C(=O)c1ccccc1C2=O` (stereo unspecified) yielded an IC50 of 10.4 µM.
Compound `CC1(C)CC(Sc2ccccc2)C2=C(O1)C(=O)c1ccccc1C2=O` (stereo unspecified) has an IC50 of over 14 µM.
`CC1(C)OC2=C(C(=O)c3ccccc3C2=O)C1Sc1ccccc1` (stereo unspecified) showed an IC50 of 6.09 µM.
For `O=C1C(Cl)=C(NCc2cn(CCCCN3C(=O)c4ccccc4C3=O)nn2)C(=O)c2ccccc21`, the IC50 was over 10 µM.

System: PBMC
Assay: Cytotoxicity against human PBMC assessed as cell viability after 72 hrs by MTT assay
Type: cell-based
Details: not given
Work on `O=C1C(Br)=C(NCc2cn(-c3cccc([N+](=O)[O-])c3)nn2)C(=O)c2ccccc21` yielded an IC50 of over 11 µM.
`CC1(C)CC(Nc2cccc(F)c2)C2=C(O1)C(=O)c1ccccc1C2=O` (stereo unspecified) showed an IC50 of 4.44 µM.
Work on `CC1(C)CC(Nc2cccc(Br)c2)C2=C(O1)C(=O)c1ccccc1C2=O` (stereo unspecified) yielded an IC50 of 5 µM.
`CC1(C)CC(Sc2ccccc2)C2=C(O1)C(=O)c1ccccc1C2=O` (stereo unspecified) showed an IC50 of over 14 µM.
Compound `CC1(C)OC2=C(C(=O)c3ccccc3C2=O)C1Sc1ccccc1` (stereo unspecified) has an IC50 of over 14.8 µM.
Compound `O=C1C(Cl)=C(NCc2cn(CCCCN3C(=O)c4ccccc4C3=O)nn2)C(=O)c2ccccc21` has an IC50 of over 10 µM.

System: HCT-116
Assay: Cytotoxicity against human HCT116 cells assessed as cell viability after 72 hrs by MTT assay
Type: functional, cell-based
Details: HCT-116, 72 h
In the case of `O=C1C(Br)=C(NCc2cn(-c3cccc([N+](=O)[O-])c3)nn2)C(=O)c2ccccc21`, the IC50 is reported as over 11 µM.
`CC1(C)CC(Nc2cccc(Br)c2)C2=C(O1)C(=O)c1ccccc1C2=O` (stereo unspecified) showed an IC50 of over 12 µM.
`CC1(C)CC(Sc2ccccc2)C2=C(O1)C(=O)c1ccccc1C2=O` (stereo unspecified) showed an IC50 of over 14 µM.
In the case of `CC1(C)OC2=C(C(=O)c3ccccc3C2=O)C1Sc1ccccc1` (stereo unspecified), the IC50 is reported as 3.29 µM.
Work on `O=C1C(Cl)=C(NCc2cn(CCCCN3C(=O)c4ccccc4C3=O)nn2)C(=O)c2ccccc21` yielded an IC50 of over 10 µM.

System: not listed separately
Assay: Cytotoxicity against human HCT8 cells assessed as cell viability after 72 hrs by MTT assay
Type: functional, cell-based
Details: HCT-8, 72 h
`O=C1C(Br)=C(NCc2cn(-c3cccc([N+](=O)[O-])c3)nn2)C(=O)c2ccccc21` showed an IC50 of over 11 µM.
Compound `CC1(C)CC(Nc2cccc(Br)c2)C2=C(O1)C(=O)c1ccccc1C2=O` (stereo unspecified) has an IC50 of over 12 µM.
Work on `CC1(C)CC(Sc2ccccc2)C2=C(O1)C(=O)c1ccccc1C2=O` (stereo unspecified) yielded an IC50 of over 14 µM.
With `CC1(C)OC2=C(C(=O)c3ccccc3C2=O)C1Sc1ccccc1` (stereo unspecified) the IC50 was 2.25 µM.
In the case of `O=C1C(Cl)=C(NCc2cn(CCCCN3C(=O)c4ccccc4C3=O)nn2)C(=O)c2ccccc21`, the IC50 is reported as over 10 µM.

System: L929
Assay: Cytotoxicity against mouse L929 cells assessed as cell viability after 72 hrs by MTT assay
Type: ADME, cell-based
Details: L929, 72 h
For `O=C1C(Br)=C(NCc2cn(-c3cccc([N+](=O)[O-])c3)nn2)C(=O)c2ccccc21`, the IC50 was over 11 µM.
In the case of `CC1(C)CC(Nc2cccc(F)c2)C2=C(O1)C(=O)c1ccccc1C2=O` (stereo unspecified), the IC50 is reported as 3.24 µM.
For `CC1(C)CC(Nc2cccc(Br)c2)C2=C(O1)C(=O)c1ccccc1C2=O` (stereo unspecified), the IC50 was 3.81 µM.
Work on `CC1(C)CC(Sc2ccccc2)C2=C(O1)C(=O)c1ccccc1C2=O` (stereo unspecified) yielded an IC50 of over 14 µM.
`CC1(C)OC2=C(C(=O)c3ccccc3C2=O)C1Sc1ccccc1` (stereo unspecified) gave an IC50 of 13.8 µM.
With `O=C1C(Cl)=C(NCc2cn(CCCCN3C(=O)c4ccccc4C3=O)nn2)C(=O)c2ccccc21` the IC50 was over 10 µM.

System: DU-145
Assay: Cytotoxicity against human DU145 cells assessed as cell viability after 72 hrs by MTT assay
Type: functional, cell-based
Details: DU-145, 72 h
Compound `O=C1C(Br)=C(NCc2cn(-c3cccc([N+](=O)[O-])c3)nn2)C(=O)c2ccccc21` has an IC50 of over 11 µM.
Compound `CC1(C)CC(Nc2cccc(F)c2)C2=C(O1)C(=O)c1ccccc1C2=O` (stereo unspecified) has an IC50 of 8.76 µM.
`CC1(C)CC(Nc2cccc(Br)c2)C2=C(O1)C(=O)c1ccccc1C2=O` (stereo unspecified) gave an IC50 of 10.5 µM.
Work on `CC1(C)CC(Sc2ccccc2)C2=C(O1)C(=O)c1ccccc1C2=O` (stereo unspecified) yielded an IC50 of over 14 µM.
With `CC1(C)OC2=C(C(=O)c3ccccc3C2=O)C1Sc1ccccc1` (stereo unspecified) the IC50 was 6.98 µM.
`O=C1C(Cl)=C(NCc2cn(CCCCN3C(=O)c4ccccc4C3=O)nn2)C(=O)c2ccccc21` showed an IC50 of over 10 µM.
